{"source": "patent US20240165196A1", "about": "“Beta-Lactamase Inhibitors” (VIB VZW, priority 2021, published 2024)", "key": {"[1]": {"tested_on": "E. coli strain lacking TEM (ATCC 25922)", "experiment": "Structured Illumination Microscopy of peptide-treated bacteria lacking TEM", "type": "cell-based", "conditions": "same treatment as UZ_TEM104", "experimental": "(§1) FIGS. 3A-3P. […] Three replicates are shown for each condition. […] A single representative image is shown. […] Three replicates are shown for each condition. (FIG. 3E) [Left] […] [Middle] […] [Right] […] A single representative image is shown. […] A single representative image is shown. […] A single representative image is shown. […] A single representative blot is shown. […] 106 cells were analysed for the plot.\n(§2) Moreover, we confirmed the presence of the protein in the correct band using mass spectrometry proteomics. We repeated this with a strain expressing SHV-154, blotting with a polyclonal rabbit antibody raised against the recombinant SHV enzyme described above (FIG. 3K).\nThe bacterial cultures were washed with PBS and the number of the bacteria were adjusted to 10^8-10^9 cells/mL. […] Then, cells were treated with LCO dyes (pFTAA; Amytacker™ 680 or Amytacker™ 545: final concentration of 0.5 μM; Ebba Biotech, Sweden) for at least 90 min. The absorption, emission and excitation spectra for each dye were measured based on the standard Ebbabiotec advice (ebbabiotech.com).\nBacteria were fixed by adding 2.5% paraformaldehyde and 0.04% glutaraldehyde (final concentrations) to the culture media, followed by incubation at room temperature for 15 mins and 30 mins on ice. Bacteria were then washed in PBS and resuspended in GTE buffer (50 mM glucose, 25 mM Tris, and 10 mM EDTA, pH 8.0). […]"}, "[2]": {"tested_on": "16 additional E. coli clinical isolates containing TEM or SHV enzymes", "experiment": "MIC of ampicillin with fixed 30 μg/ml TEM3.2, isolate panel summary", "type": "cell-based", "conditions": "14 out of 16 isolates", "experimental": "Moreover, the core sequence of peptide TEM3.0 also occurs in the structurally related SHV β-lactamase (FIG. 2E). Although the C-terminal extension residues H and N have been replaced with physicochemically similar R and Q, respectively (FIG. 2H). […] To quantify the synergy between these four peptides and penicillin G, we performed a so-called checkerboard assay, which allows to compare the activity of two test compounds co-incubated (here peptide and a beta-lactam antibiotic), to their individual activities in isolation. The result from the assay is quantified as the Fractional Inhibitory Concentration Index (FICI), and it is generally accepted that values below 0.5 indicate synergistic effects between the compounds. […] We evaluated the synergy of the peptides with penicillin G in clinical E. coli isolates carrying the TEM (FIG. 2I) or SHV enzymes (FIG. 2J). […]\nDetermination of MIC values using the broth microdilution in the 96-well plate (BD Biosciences, Belgium) according to the EUCAST guideline, which was performed in 96-well polystyrene flat bottom microtiter plates (BD Biosciences). […] OD was measured at 590 nm a multipurpose ultraviolet-visible plate reader, and the absorbance of the growth bacteria was measured using absorbance reader. Bacterial growth was also visually inspected and agreed well with the OD reading."}, "[3]": {"molecular_target": "T1, recombinantly purified TEM-1 (Escherichia coli, UniProt P62593)", "T1 construct": "DNA TEM (870 bp) or SHV (894 bp) were each sub-cloned into a PUC57 vector cloning site NdeI/XhoI; His-tag (N); TEV cleavage site (N); made in house; host or cells: E. coli BL21 (DE3)", "T1 sequence (P62593 24-286 limits assumed)": "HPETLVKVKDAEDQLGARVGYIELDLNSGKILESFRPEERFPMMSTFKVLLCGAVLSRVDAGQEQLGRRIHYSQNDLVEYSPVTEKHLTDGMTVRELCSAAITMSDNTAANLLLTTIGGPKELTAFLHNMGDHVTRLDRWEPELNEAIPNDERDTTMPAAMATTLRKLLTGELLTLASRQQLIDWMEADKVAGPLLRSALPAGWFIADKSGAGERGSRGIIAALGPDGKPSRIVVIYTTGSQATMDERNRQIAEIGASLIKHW", "type": "biochemical, E. coli", "conditions": "thioflavin-T aggregation assay", "from_the_text": "Three replicates are shown for each condition. […] A single representative image is shown. […] Three replicates are shown for each condition. […] A single representative image is shown. […] A single representative image is shown. […] A single representative image is shown."}, "[4]": {"tested_on": "E. coli K12 MG1655 overexpressing GFP", "experiment": "Structured Illumination Microscopy of bacterial strains stably expressing GFP or FP fusions", "type": "cell-based", "conditions": "strains expressing GFP or proteins fused to FPs, treated with TEM3.2", "experimental": "as §1, §2\nBacteria were fixed by adding 2.5% paraformaldehyde and 0.04% glutaraldehyde (final concentrations) to the culture media, followed by incubation at room temperature for 15 mins and 30 mins on ice. Bacteria were then washed in PBS and resuspended in GTE buffer (50 mM glucose, 25 mM Tris, and 10 mM EDTA, pH 8.0). Directly preceding microscopic analysis, cells were transferred to a glass slide and covered with a coverslip. Imaging was performed using a Zeiss Elyra S.1 system in the LiMoNe Light microscopy facility of VIB-KU Leuven."}, "NCI-H441": {"tested_on": "NCI-H441", "type": "cell-based, human"}}}
{"substance": "Ac-RLTAFLHNRRPRLTAFLRQRR-NH2 [TEM3.2]", "values": [{"measurement": "inclusion body formation", "setting": "[1]", "result": "only very limited inclusion body formation"}, {"measurement": "clinical isolates sensitized to ampicillin", "setting": "[2]", "result": 87, "unit": "%"}, {"measurement": "induction of aggregation of recombinantly purified TEM beta-lactamase", "setting": "[3]", "result": "potent inducer of the aggregation"}, {"measurement": "induced aggregation of fluorescent proteins", "setting": "[4]", "result": "did not observe any induced aggregation"}, {"measurement": "cytotoxicity (Cell Titer Blue)", "setting": "NCI-H441", "result": "not cytotoxic"}]}
